The numbers were not newly measured in PMC12162873, “Modulating phosphatase DUSP22 with BML-260 ameliorates skeletal muscle wasting via Akt independent JNK-FOXO3a repression” (EMBO Molecular Medicine, 2025), which cites them from elsewhere.

In series [1] the test system is aldose reductase. On the set-up: method as in Ramirez and Borja, 2008. The settings on record: drug for diabetic neuropathy; ref Ramirez and Borja, 2008; cited from earlier work.
Series [2] has as its system JNK. On the set-up: method as in ref [19] Bennett et al, 2001. Conditions: ref [19] Bennett et al, 2001; cited from earlier work.

Take `CC(/C=C1\SC(=S)N(CC(=O)O)C1=O)=C\c1ccccc1` [Epalrestat]: in series [1], the safety and tolerability result was “safe, well-tolerated”. With `Oc1c2ccccc2c2c3c(cccc13)N=N2` [SP600125], the “selectivity versus a range of kinases and enzymes tested” value in series [2] is > 20 -fold.
